The experiment deals with P388 leukemia ip, CD2F1 mice, survival T/C. The experiment in a line: NCI In Vivo Anticancer Drug Screen. Data for tumor model P388 Leukemia (intraperitoneal) in CD2F1 (CDF1) mice. The conditions noted are these: endpoint: median survival time, higher = longer survival. In a few lines: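 Mice carrying the transplanted tumor received test compound or vehicle. Survival was recorded in each group, and the value is the treated-group measurement divided by that of the vehicle-treated control group.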

Setting [1] is: dose: 50.0 mg/kg/injection, schedule: Q01DX009 (ip), vehicle: Klucel (hydroxypropylcellulose) (HPC).
Setting [2] is: dose: 50.0 mg/kg/injection, schedule: Q01DX009 (ip), vehicle: saline with Tween-80.
Setting [3] is: dose: 50.0 mg/kg/injection, schedule: Q01DX009 (ip), vehicle: suspension in saline.
Where [4] appears, read: dose: 100.0 mg/kg/injection, schedule: Q01DX009 (ip), vehicle: Klucel (hydroxypropylcellulose) (HPC).
[5] abbreviates: dose: 100.0 mg/kg/injection, schedule: Q01DX009 (ip), vehicle: saline with Tween-80.
Where [6] appears, read: dose: 100.0 mg/kg/injection, schedule: Q01DX009 (ip), vehicle: suspension in saline.
Where [7] appears, read: dose: 200.0 mg/kg/injection, schedule: Q01DX009 (ip), vehicle: Klucel (hydroxypropylcellulose) (HPC).
[8] abbreviates: dose: 200.0 mg/kg/injection, schedule: Q01DX009 (ip), vehicle: saline with Tween-80.
Where [9] appears, read: dose: 200.0 mg/kg/injection, schedule: Q01DX009 (ip), vehicle: suspension in saline.
The mark [10] stands for this setting: dose: 100.0 mg/kg/injection, schedule: Q04DX002 (ip), vehicle: Klucel (hydroxypropylcellulose) (HPC).
[11] abbreviates: dose: 200.0 mg/kg/injection, schedule: Q04DX002 (ip), vehicle: Klucel (hydroxypropylcellulose) (HPC).
Where [12] appears, read: dose: 50.0 mg/kg/injection, schedule: Q01DX005 (ip), vehicle: saline with Tween-80.
Setting [13] is: dose: 100.0 mg/kg/injection, schedule: Q01DX005 (ip), vehicle: saline with Tween-80.
[14] abbreviates: dose: 200.0 mg/kg/injection, schedule: Q01DX005 (ip), vehicle: saline with Tween-80.
The mark [15] stands for this setting: dose: 60.0 mg/kg/injection, schedule: Q01DX005 (ip), vehicle: Klucel (hydroxypropylcellulose) (HPC).
[16] abbreviates: dose: 120.0 mg/kg/injection, schedule: Q01DX005 (ip), vehicle: Klucel (hydroxypropylcellulose) (HPC).
Where [17] appears, read: dose: 50.0 mg/kg/injection, schedule: Q01DX009 (ip), vehicle: saline.
Where [18] appears, read: dose: 100.0 mg/kg/injection, schedule: Q01DX009 (ip), vehicle: saline.

“And” between values parts separate entries of the source, which are not always exact repeats. Equal values may be shown once. Toxic doses and inconclusive results are not listed.

`C[As](C)SCCC(N)C(=O)NC(CCS[As](C)C)C(=O)O` (stereo unspecified): the T/C (dose: 12.5 mg/kg/injection, schedule: Q01DX009 (ip), vehicle: Klucel (hydroxypropylcellulose) (HPC)) is 110 % of control.

With `Cc1cc(NC(=S)SCc2ccc3c(c2)OCO3)ccc1Br`, the T/C is 102 % of control and 107 % of control (dose: 25.0 mg/kg/injection, schedule: Q01DX009 (ip), vehicle: Klucel (hydroxypropylcellulose) (HPC)); 96 % of control (dose: 25.0 mg/kg/injection, schedule: Q01DX009 (ip), vehicle: saline with Tween-80); 107 % of control and 115 % of control and 116 % of control under setting [1]; 91 % of control under setting [2]; 93 % of control under setting [3]; 107 % of control and 115 % of control and 118 % of control under setting [4]. In addition, the T/C is, setting by setting: under setting [5], 100 % of control; under setting [6], 104 % of control; under setting [7], 107 % of control; under setting [8], 100 % of control; under setting [9], 93 % of control.

Turning to `CCOC(=O)C1=C(C)NC(=O)NC1c1ccccc1` (stereo unspecified), the T/C was 100 % of control under setting [1]; 107 % of control under setting [4]; 113 % of control under setting [7]; 109 % of control (dose: 400.0 mg/kg/injection, schedule: Q01DX009 (ip), vehicle: Klucel (hydroxypropylcellulose) (HPC)).

Turning to `CC1=CC2C(=O)N(C)C1c1ccccc12` (stereo unspecified), the T/C under setting [10] is 100 % of control; the T/C under setting [11] is 100 % of control; the T/C (dose: 400.0 mg/kg/injection, schedule: Q04DX002 (ip), vehicle: Klucel (hydroxypropylcellulose) (HPC)) was 97 % of control.

Take `CN1CC(=O)[O][Sn]([CH3])([CH3])[O]C(=O)C1`: the T/C (dose: 7.5 mg/kg/injection, schedule: Q01DX005 (ip), vehicle: Klucel (hydroxypropylcellulose) (HPC)) is 119 % of control; the T/C (dose: 15.0 mg/kg/injection, schedule: Q01DX005 (ip), vehicle: Klucel (hydroxypropylcellulose) (HPC)) is 122 % of control; the T/C (dose: 15.0 mg/kg/injection, schedule: Q01DX005 (ip), vehicle: saline with Tween-80) is 101 % of control; the T/C (dose: 30.0 mg/kg/injection, schedule: Q01DX005 (ip), vehicle: Klucel (hydroxypropylcellulose) (HPC)) is 122 % of control; the T/C (dose: 30.0 mg/kg/injection, schedule: Q01DX005 (ip), vehicle: saline with Tween-80) was 116 % of control.

As to `Cc1ccc(C(=O)C(CN(C)C)CN(C)C)cc1C`, the T/C runs as follows: (dose: 3.12 mg/kg/injection, schedule: Q01DX005 (ip), vehicle: saline) 109 % of control; (dose: 6.25 mg/kg/injection, schedule: Q01DX005 (ip), vehicle: saline) 119 % of control and 124 % of control; (dose: 25.0 mg/kg/injection, schedule: Q01DX005 (ip), vehicle: saline) 114 % of control.

As to `Cc1cc(NC(=S)SCc2ccc3c(c2)OCO3)ccc1Cl`, the T/C under setting [1] is 112 % of control; the T/C under setting [3] was 91 % of control; the T/C under setting [4] is 122 % of control; the T/C under setting [6] is 94 % of control; the T/C under setting [7] is 114 % of control; the T/C under setting [9] is 90 % of control.

In the case of `C=C1C(=C)C2OC1c1cc3c(cc12)C(=O)c1ccccc1C3=O`, the T/C is 90 % of control under setting [12], 109 % of control under setting [13] and 114 % of control under setting [14].

As for `O=[N+]([O-])c1ccc2c(c1)C1CN(Cc3ccccc31)C2` (stereo unspecified), the T/C runs as follows: (dose: 100.0 mg/kg/injection, schedule: Q01DX001 (ip), vehicle: saline with Tween-80) 90 % of control; (dose: 200.0 mg/kg/injection, schedule: Q01DX001 (ip), vehicle: saline with Tween-80) 89 % of control; (dose: 400.0 mg/kg/injection, schedule: Q01DX001 (ip), vehicle: saline with Tween-80) 97 % of control.

For the compound `C=C1c2c(O)c(C)c(O)c(C(C)=O)c2OC12CC(=O)C(C(=O)O)=C2C` (stereo unspecified), the T/C (dose: 12.5 mg/kg/injection, schedule: Q01DX009 (ip), vehicle: gum acacia) is 105 % of control and 112 % of control; the T/C (dose: 25.0 mg/kg/injection, schedule: Q01DX009 (ip), vehicle: gum acacia) is 108 % of control and 109 % of control; the T/C (dose: 50.0 mg/kg/injection, schedule: Q01DX009 (ip), vehicle: gum acacia) was 108 % of control; the T/C (dose: 100.0 mg/kg/injection, schedule: Q01DX009 (ip), vehicle: gum acacia) was 108 % of control and 110 % of control; the T/C (dose: 200.0 mg/kg/injection, schedule: Q01DX009 (ip), vehicle: gum acacia) was 108 % of control and 110 % of control.

`CN(C)C1CS(=O)(=O)OC2=C1CCc1sccc12` (stereo unspecified): the T/C under setting [15] was 102 % of control; the T/C under setting [16] is 100 % of control; the T/C (dose: 240.0 mg/kg/injection, schedule: Q01DX005 (ip), vehicle: Klucel (hydroxypropylcellulose) (HPC)) was 97 % of control.

Turning to `Cc1cc(C)c(OP(=S)(Oc2c(C)cc(C)cc2C)Oc2c(C)cc(C)cc2C)c(C)c1`, the T/C under setting [10] was 87 % of control and the T/C under setting [11] was 86 % of control.

As for `COC1(OC)OC(c2ccc([N+](=O)[O-])cc2)=C(c2ccc([N+](=O)[O-])cc2)OC1(OC)OC`, the T/C under setting [15] was 90 % of control and the T/C under setting [16] was 87 % of control.

Consider `CCOC(=O)c1c(-c2ccccc2)nn(CC(N)=O)c1CO`, for which the T/C by setting is: under setting [12], 100 % of control; under setting [13], 105 % of control; under setting [14], 103 % of control.

In the case of `C[CH2][Ge]([CH2]C)[CH2]C.C[CH2][Ge]([CH2]C)[O]C(C)=O`, the T/C was 95 % of control under setting [17]; 98 % of control under setting [18]; 96 % of control (dose: 200.0 mg/kg/injection, schedule: Q01DX009 (ip), vehicle: saline).

As to `N#Cc1ccc[nH]c1=S`, the T/C is 95 % of control under setting [2], 102 % of control under setting [5] and 104 % of control under setting [8].

With `CCOc1cc(/C=N\Nc2nnc(C)n2N)c(C)cc1N(CCCl)CCCl`, the T/C by setting is: (dose: 0.22 mg/kg/injection, schedule: Q01DX009 (ip), vehicle: saline with Tween-80) 110 % of control; (dose: 0.33 mg/kg/injection, schedule: Q01DX009 (ip), vehicle: saline with Tween-80) 105 % of control; (dose: 0.5 mg/kg/injection, schedule: Q01DX009 (ip), vehicle: saline with Tween-80) 110 % of control; (dose: 0.75 mg/kg/injection, schedule: Q01DX009 (ip), vehicle: saline with Tween-80) 120 % of control; (dose: 1.25 mg/kg/injection, schedule: Q04DX003 (ip), vehicle: saline) 100 % of control; (dose: 2.0 mg/kg/injection, schedule: Q01DX009 (ip), vehicle: saline with Tween-80) 160 % of control. The T/C runs as follows: (dose: 2.5 mg/kg/injection, schedule: Q04DX003 (ip), vehicle: saline) 100 % of control; (dose: 4.0 mg/kg/injection, schedule: Q01DX009 (ip), vehicle: saline with Tween-80) 185 % of control; (dose: 5.0 mg/kg/injection, schedule: Q04DX003 (ip), vehicle: saline) 103 % of control.

As to `N=C1C(O)=CC(=O)C(O)=C1C(=O)O`, the T/C was 104 % of control (dose: 60.0 mg/kg/injection, schedule: Q01DX005 (ip), vehicle: saline); 103 % of control (dose: 120.0 mg/kg/injection, schedule: Q01DX005 (ip), vehicle: saline); 101 % of control (dose: 240.0 mg/kg/injection, schedule: Q01DX005 (ip), vehicle: saline).

Regarding `CC(=O)n1ccc(=O)[nH]c1=O`, the T/C is 87 % of control under setting [2]; 96 % of control under setting [5]; 100 % of control (dose: 100.0 mg/kg/injection, schedule: Q04DX003 (ip), vehicle: saline with Tween-80); 96 % of control under setting [8]; 96 % of control (dose: 200.0 mg/kg/injection, schedule: Q04DX003 (ip), vehicle: saline with Tween-80); 96 % of control (dose: 400.0 mg/kg/injection, schedule: Q04DX003 (ip), vehicle: saline with Tween-80).

On to `CN(C)[C@@H]1C(=O)C(C(=O)NCNC(CO)(CO)CO)=C(O)[C@@]2(O)C(=O)C3=C(O)c4c(O)cccc4[C@@](C)(O)[C@H]3C[C@@H]12`, for which the T/C by setting is: (dose: 25.0 mg/kg/injection, schedule: Q01DX009 (ip), vehicle: saline) 100 % of control; under setting [17], 95 % of control; under setting [18], 100 % of control.
